Laboratory results from patent US7045515B2, “β-lactam compounds process for reproducing the same and serum cholesterol-lowering agents containing the same” (Kotobuki Pharmaceutical Co., Ltd., priority 2001, dated 2006).

Q: With `CCOC(=O)C(C)(C)Oc1ccc(N2C(=O)[C@H](CCCc3ccc(C)cc3)[C@H]2c2ccc(C[C@@H]3O[C@H](CO)[C@@H](O)[C@H](O)[C@H]3O)cc2)cc1` (relative stereo) [Compound 20, 2-{4-[(4S*,3R*)-4-{[(5S,2R,3R,4R,6R)-3,4,5-Trihydroxy-6-(hydroxymethyl)perhydro-2H-pyran-2-yl]methyl}phenyl-3-[3-(4-methylphenyl)propyl]-2-oxoazetidinyl]phenoxy}-2-methylpropionic acid ethyl ester] as the compound, how does the melting point read?
A: 76 to 78 °C

Q: Which melting point does the source give for `Cc1ccc(CCC[C@H]2C(=O)N(c3ccc(OC(C)(C)C(=O)O)cc3)[C@@H]2c2ccc(C[C@@H]3O[C@H](CO)[C@@H](O)[C@H](O)[C@H]3O)cc2)cc1` (relative stereo) [Compound 21, 2-{4-[(4S*,3R*)-4-{[(5S,2R,3R,4R,6R)-3,4,5-Trihydroxy-6-(hydroxymethyl)perhydro-2H-pyran-2-yl]methyl}phenyl-3-[3-(4-methylphenyl)propyl]-2-oxoazetidinyl]phenoxy}-2-methylpropionic acid] here?
A: 161 to 162 °C

Q: For `O=C1[C@H](CCCc2ccc(F)cc2)[C@H](c2ccc(CC3O[C@H](CO)[C@@H](O)[C@H](O)[C@H]3O)cc2)N1c1ccc(F)cc1` (relative stereo) [Compound 40, (4R*,3R*)-4-(4-{[(5S,2R,3R,4R,6R)-3,4,5-Trihydroxy-6-(hydroxymethyl)perhydro-2H-pyran-2-yl]methyl}phenyl)-3-[3-(4-fluorophenyl)propyl]-1-(4-fluorophenyl)azetidine-2-one], which melting point is on record?
A: 78 to 80 °C

Q: Which melting point does the source give for `O=C1[C@H](CCCc2ccc(F)cc2)[C@@H](c2ccc(CC3O[C@H](CO)[C@@H](O)[C@H](O)[C@H]3O)cc2)N1c1ccc(F)cc1` (stereo in doubt) [Compound 25, (4S,3R)-4-(4-{[(5S,2R,3R,4R,6R)-3,4,5-Trihydroxy-6-(hydroxymethyl)perhydro-2H-pyran-2-yl)methyl}phenyl)-1-(4-fluorophenyl)-3-[3-(4-fluorophenyl)propyl]azetidine-2-one] here?
A: 67 to 69 °C

Q: With `O=C1[C@H](CC[C@H](O)c2ccc(F)cc2)[C@@H](c2ccc(C[C@@H]3O[C@H](CO)[C@@H](O)[C@H](O)[C@H]3O)cc2)N1c1ccc(F)cc1` [Compound 22, (4S,3R)-3-[(3S)-3-(4-Fluorophenyl)-3-hydroxypropyl]-4-(4-{[(2S,5S,3R,4R,6R)-3,4,5-trihydroxy-6-(hydroxymethyl)perhydro-2H-pyran-2-yl]methyl}phenyl)-1-(4-fluorophenyl)azetidine-2-one] as the compound, how does the melting point read?
A: 115 to 117 °C

Q: For `O=C(CC[C@H]1C(=O)N(c2ccc(F)cc2)[C@@H]1c1ccc(C[C@@H]2O[C@H](CO)[C@@H](O)[C@H](O)[C@H]2O)cc1)c1ccc(F)cc1` [Compound 26, (4S,3R)-4-(4-{[(2S,5S,3R,4R,6R)-3,4,5-Trihydroxy-6-(hydroxymethyl)perhydro-2H-pyran-2-yl]methyl}phenyl)-1-(4-fluorophenyl)-3-[3-(4-fluorophenyl)-3-oxopropyl]azetidine-2-one], which melting point is on record?
A: 78 to 80 °C

Q: With `O=C(CC[C@H]1C(=O)N(c2ccccc2)[C@@H]1c1ccc(C[C@@H]2O[C@H](CO)[C@@H](O)[C@H](O)[C@H]2O)cc1)c1ccc(F)cc1` [Compound 27, (4S,3R)-4-(4-{[(2S,5S,3R,4R,6R)-3,4,5-Trihydroxy-6-(hydroxymethyl)perhydro-2H-pyran-2-yl]methyl}phenyl)-1-phenyl-3-[3-(4-fluorophenyl)-3-oxopropyl]azetidine-2-one] as the compound, how does the melting point read?
A: 104 to 106 °C

Q: With `O=C(O)c1ccc(N2C(=O)[C@H](CC[C@H](O)c3ccc(F)cc3)[C@H]2c2ccc(C[C@@H]3O[C@H](CO)[C@@H](O)[C@H](O)[C@H]3O)cc2)cc1` [Compound 29, 4-[(4S,3R)-3-[(3S)-3-(4-Fluorophenyl)-3-hydroxypropyl]-4-(4-{[(2S,5S,3R,4R,6R)-3,4,5-trihydroxy-6-(hydroxymethyl)perhydro-2H-pyran-2-yl]methyl}phenyl)-2-oxoazetidinyl]benzoic acid] as the compound, how does the melting point read?
A: 148 to 150 °C

Q: For `O=C(O)c1ccc(N2C(=O)[C@H](CCC(=O)c3ccc(F)cc3)[C@H]2c2ccc(C[C@@H]3O[C@H](CO)[C@@H](O)[C@H](O)[C@H]3O)cc2)cc1` [Compound 30, 4-[(4S,3R)-4-(4-{[(2S,5S,3R,4R,6R)-3,4,5-Trihydroxy-6-(hydroxymethyl)perhydro-2H-pyran-2-yl]methyl}phenyl)-3-[3-(4-fluorophenyl)-3-oxopropyl]-2-oxoazetidinyl]benzoic acid], which melting point is on record?
A: 102 to 104 °C

Q: With `O=C(O)c1ccc(N2C(=O)[C@H](CCCc3ccc(F)cc3)[C@H]2c2ccc(C[C@@H]3O[C@H](CO)[C@@H](O)[C@H](O)[C@H]3O)cc2)cc1` [Compound 31, 4-[(4S,3R)-4-(4-{[(2S,5S,3R,4R,6R)-3,4,5-Trihydroxy-6-(hydroxymethyl)perhydro-2H-pyran-2-yl]methyl}phenyl)-3-[3-(4-fluorophenyl)propyl]-2-oxoazetidinyl]benzoic acid] as the compound, how does the melting point read?
A: 97 to 99 °C

Q: With `O=C(CC[C@H]1C(=O)N(c2ccc(F)cc2)[C@@H]1c1ccc([C@@H]2O[C@H](CO)[C@@H](O)[C@H](O)[C@H]2O)cc1)c1ccc(F)cc1` [Compound 34] as the compound, how does the melting point read?
A: 83 to 85 °C

Q: For `O=C1[C@H](CC[C@H](O)c2ccc(F)cc2)[C@@H](c2ccc([C@@H]3O[C@H](CO)[C@@H](O)[C@H](O)[C@H]3O)cc2)N1c1ccc(F)cc1` [Compound 35], which melting point is on record?
A: 81 to 83 °C

Q: For `Cc1ccc(N2C(=O)[C@H](CC[C@H](O)c3ccc(F)cc3)[C@H]2c2ccc([C@@H]3O[C@H](CO)[C@@H](O)[C@H](O)[C@H]3O)cc2)cc1` [Compound 36], which melting point is on record?
A: 79 to 81 °C

Q: With `O=C1[C@H](CC[C@H](O)c2ccccc2)[C@@H](c2ccc(C[C@@H]3O[C@H](CO)[C@@H](O)[C@H](O)[C@H]3O)cc2)N1c1ccccc1` [Compound 41, 3-((3S)-3-Hydroxy-3-phenylpropyl)(4S,3R)-4-(4-{[(2S,5S,3R,4R,6R)-3,4,5-trihydroxy-6-(hydroxymethyl)perhydro-2H-pyran-2-yl]methyl}phenyl)-1-phenylazetidine-2-one] as the compound, how does the melting point read?
A: 110 to 112 °C

Q: With `CCOC(=O)c1ccc(N2C(=O)[C@H](CC[C@H](O)c3ccc(F)cc3)[C@H]2c2ccc(C[C@@H]3O[C@H](CO)[C@@H](O)[C@H](O)[C@H]3O)cc2)cc1` [Compound 42, 4-[3-((3S)-3-(4-Fluorophenyl)-3-hydroxypropyl](4S,3R)-4-(4-{[(2S,5S,3R,4R,6R)-3,4,5-trihydroxy-6-(hydroxymethyl)perhydro-2H-pyran-2-yl]methyl}phenyl)-2-oxoazetidinyl]benzoic acid ethyl ester] as the compound, how does the melting point read?
A: 56 to 58 °C

Q: Which melting point does the source give for `Cc1ccc(N2C(=O)[C@H](CCOc3ccc(F)cc3)[C@H]2c2ccc(C[C@@H]3O[C@H](CO)[C@@H](O)[C@H](O)[C@H]3O)cc2)cc1` [Compound 43, 4-(4-{[(5S,2R,3R,4R,6R)-3,4,5-Trihydroxy-6-(hydroxymethyl)perhydro-2H-pyran-2-yl]methyl}phenyl)(4S,3R)-1-(4-methylphenyl)-3-[3-(4-fluorophenoxy)ethyl]azetidine-2-one] here?
A: 96 to 98 °C

Q: For `O=C1[C@H](CCCc2ccccc2)[C@@H](c2ccc(C[C@@H]3O[C@H](CO)[C@@H](O)[C@H](O)[C@H]3O)cc2)N1c1ccccc1` [Compound 44, 3-(3-Phenylpropyl)(4S,3R)-4-(4-{[(5S,3R,4R,6R)-3,4,5-trihydroxy-6-(hydroxymethyl)perhydro-2H-pyran-2-yl]methyl}phenyl)-1-phenylazetidine-2-one], which melting point is on record?
A: 84 to 86 °C

Q: For `O=C1[C@H](CC[C@H](O)c2ccc(F)cc2)[C@@H](c2ccc(/C=C/C[C@@H]3O[C@H](CO)[C@@H](O)[C@H](O)[C@H]3O)cc2)N1c1ccc(F)cc1` [Compound 47], which melting point is on record?
A: 72 to 74 °C

Q: For `O=C1[C@H](CC[C@H](O)c2ccc(F)cc2)[C@@H](c2ccc(CCC[C@@H]3O[C@H](CO)[C@@H](O)[C@H](O)[C@H]3O)cc2)N1c1ccc(F)cc1` [Compound 48], which melting point is on record?
A: 81 to 83 °C

Q: For `O=C1[C@H](CC[C@H](O)c2ccc(F)cc2)[C@@H](c2ccc(CCCOC[C@@H]3O[C@H](CO)[C@@H](O)[C@H](O)[C@H]3O)cc2)N1c1ccc(F)cc1` [Compound 50], which melting point is on record?
A: 61 to 63 °C

Q: Which melting point does the source give for `O=C1[C@H](CC[C@H](O)c2ccc(F)cc2)[C@@H](c2ccc(/C=C/COC[C@@H]3O[C@H](CO)[C@@H](O)[C@H](O)[C@H]3O)cc2)N1c1ccc(F)cc1` [Compound 51] here?
A: 65 to 67 °C

Q: Which melting point does the source give for `O=C1[C@H](CC[C@H](O)c2ccc(F)cc2)[C@@H](c2ccc(/C=C/CC[C@@H]3O[C@H](CO)[C@@H](O)[C@H](O)[C@H]3O)cc2)N1c1ccc(F)cc1` [Compound 52] here?
A: 79 to 81 °C

Q: Which melting point does the source give for `O=C1[C@H](CC[C@H](O)c2ccc(F)cc2)[C@@H](c2ccc(CCCC[C@@H]3O[C@H](CO)[C@@H](O)[C@H](O)[C@H]3O)cc2)N1c1ccc(F)cc1` [Compound 53] here?
A: 81 to 83 °C

Q: Which melting point does the source give for `O=C1[C@H](CC[C@H](O)c2ccc(F)cc2)[C@@H](c2ccc(/C=C/CCC[C@@H]3O[C@H](CO)[C@@H](O)[C@H](O)[C@H]3O)cc2)N1c1ccc(F)cc1` [Compound 54] here?
A: 69 to 71 °C

Q: For `O=C1[C@H](CC[C@H](O)c2ccc(F)cc2)[C@@H](c2ccc(CCCCC[C@@H]3O[C@H](CO)[C@@H](O)[C@H](O)[C@H]3O)cc2)N1c1ccc(F)cc1` [Compound 55], which melting point is on record?
A: 66 to 68 °C

Q: With `O=C(O)[C@H]1O[C@@H](CCc2ccc([C@@H]3[C@@H](CC[C@H](O)c4ccc(F)cc4)C(=O)N3c3ccccc3)cc2)[C@H](O)[C@@H](O)[C@@H]1O` [Compound 58] as the compound, how does the melting point read?
A: 110 to 112 °C
